Paper PMC10077444, “Evaluation of In Vivo Biological Activity Profiles of Isoindole-1,3-dione Derivatives: Cytotoxicity, Toxicology, and Histopathology Studies” (ACS Omega, 2023)
Where “and” joins values, the source holds several entries; their conditions need not be identical. Identical values can stand only once. Entries after “also recorded” stand apart in the source; their conditions may differ.

Experiments:
CD1 mice = experiment: Acute toxicity study; format: in vivo; details: 200 μM, 100 μL intravenously once, 2 females and 2 males, 14 days
[1] = Weight and survival of tumor-bearing nude mice during and after treatment; format: in vivo; details: for weight of nude mice: individual mice (1)-(5); for survival of tumor-bearing nude mice: five mice per group, observed for 60 days
Description: Male atypical nude mice, 6–8 weeks old, were used for in vivo xenograft tumor models. […] For the purpose of xenograft administration, nude mice were injected subcutaneously with 100 μL of 5 × 10^6 A549-Luc cell suspension. The presence of cancer after cell administration to nude mice was followed by imaging with an IVIS device. In order to monitor tumor formation and tumor volume detection, luciferin [Biovision Inc., USA; 12 mg/mL in phosphate-buffered saline (PBS)] was injected intraperitoneally followed by visualization with IVIS 5 min later. When tumor volume reaches about 2000 mm^3, cancerous nudes are divided into three groups: the control group, 3 group, and 4 group. Grouping was made as 3–5 animals in each group. The following procedures were prepared according to the groups, and then they were implemented. In addition, the weights of nude mice were regularly checked and recorded.
Male atypical nude mice aged 6–8 weeks are commonly used in in vivo xenograft tumor models. A549-luc lung cancer cells were injected into nude mice in all three groups, and tumor growth was induced with a xenograft model. For xenograft administration, 100 μL of 5 × 10^6 A549-luc cell suspension was injected subcutaneously into nude mice. After cell application to nude mice, it was determined whether there was cancer or not by imaging with the IVIS device. After the cancer groups were formed, the treatment phase was started. […] Each prepared sample was given to the animals by tail vein administration, three doses (as described in Section 2.3) per week, and the IVIS images taken at 5 min after luciferin (200 μL of 12 mg/mL stock administered subcutaneously) at certain time intervals were evaluated.

HeLa cell lines = test system: HeLa cell lines; design: method as in PMID 31759659; details: 48 h; cited from earlier work
A549 cell lines = experiment: MTT proliferation assay, A549 cells; format: cell-based; details: Homo sapiens, A549 (A549-Luc) cells
Description: The A549 (human lung carcinoma) cell line was grown in a Dulbecco’s Modified Eagle Medium (DMEM) containing 10% fetal bovine serum (FBS) and 100 units/mL penicillin–100 μg/mL streptomycin and 2 mM L-glutamine for cytotoxicity experiments. Cells were maintained at 37 °C temperature conditions containing 5% CO2. When the cells covered 95–98% of the flask, they were passaged.
The 3-(4,5-dimethylthiazol-2-yl)-2,5-diphenyltetrazolium bromide (MTT) proliferation assay was performed to evaluate the cytotoxicity of the 3 and 4 compounds. Cells were seeded at a density of 5 × 10^4 cells/cm^2 and incubated at 37 °C in 95% air, 5% CO2 environments for 24 h. Substances 3 and 4 were first dissolved in DMSO, then dilutions were prepared by dispersing them in the DMEM cell growth medium. The dose intervals of substances 3 and 4 were prepared as 400, 200, 100, 50, and 25 μM. The dose intervals of substances 3 and 4 were placed on a 24-well cell culture plate and then incubated for 24 h. After incubation, the medium was removed and replaced with the MTT-containing medium. Plates were incubated for an additional 4 h at 37 °C. MTT medium was removed, and 100 μL of DMSO was added to dissolve the formazan crystals. The absorbance was determined using a plate reader at a wavelength of 540 nm. IC50 values for 24, 48, and 72 h were calculated using GraphPad Prism5 software (GraphPad, San Diego, CA).
Our group recently determined that isoindole-1,3-dione derivatives are potential tyrosine kinase enzyme inhibitors and have antiproliferative effects against some cell lines according to MTT test results. It has been confirmed that the antiproliferative effects vary according to the nitrogen (N) atom and the groups attached to the ring. In addition, some compounds are known to exert cytotoxic effects against more than one cell line. […] Benzyl derivatives of isoindole-1,3-dione 3 and 4 were synthesized according to the method used in our previous work.[9] First, the cytotoxic effects of both compounds against A549-Luc cells were examined. IC50 values of those drugs were calculated using the MTT activity assay. Cell viability of A549-Luc cells using two compounds was followed for 24, 48, and 72 h of incubation time. According to the results of these experiments, the optimum incubation period was determined as 48 h.

[2] = 28 day subacute toxicity study, blood biochemical parameters; details: for ALB / ALT / AST / TBIL: 200 μM group, 100 μL i.v. 3 times a week for 4 weeks, blood
[3] = 3 days, 200 μM, 20 μL tail vein, three doses a week, in g (unit assumed)
[4] = 7 days, 200 μM, 20 μL tail vein, three doses a week, in g (unit assumed)
[5] = 10 days, 200 μM, 20 μL tail vein, three doses a week, in g (unit assumed)
[6] = 15 days, 200 μM, 20 μL tail vein, three doses a week, in g (unit assumed)
[7] = 200 μM, 20 μL tail vein, three doses a week
[8] = initially, 200 μM in DMSO, 20 μL tail vein, three doses a week, in g (unit assumed)

Row | Compound | abnormalities in the behavior of the mice (CD1 mice) | weight of nude mice [1, 3] | weight of nude mice [1, 4] | weight of nude mice [1, 5] | weight of nude mice [1, 6] | survival of tumor-bearing nude mice [1, 7] | weight of nude mice [1, 8] | IC50 (HeLa cell lines) [µM] | IC50 (A549 cell lines; 24 h) [µM] | IC50 (A549 cell lines; 48 h) [µM] | IC50 (A549 cell lines; 72 h) [µM] | ALB [2] | ALT [2] | AST [2] | TBIL [2] | also measured
1 | CC(=O)O[C@H]1C=C[C@H](OC(C)=O)[C@H]2C(=O)N(Cc3ccccc3)C(=O)[C@H]21 [compound 3] | no abnormalities | 26.25 and 24.90 and 23.54 and 27.20 | 28.50 and 25.42 and 24.87 and 29.26 and 30.77 | 28.52 and 25.98 and 25.89 and 30.26 and 32.07 | 31.02 and 28.50 and 26.43 and 32.30 and 33.71 | did not die; also recorded: survived for 60 days | 23.58 and 24.10 and 22.14 and 22.18 and 24.24 | 149 | 266 | 114 | 68.8 | 2.34 ± 0.05 | 60.5 ± 6.36 | 114 ± 9.90 | 0.02 ± 0.01 | weight of nude mice ([1]; 20 days, Ex = dead, in g (unit assumed)): 32.60 and 30.60 and 28.70 and 33.78 and 36.05; weight of nude mice ([1]; 30 days, Ex = dead, in g (unit assumed)): 30.90 and 29.40 and 32.96 and 34.86; weight of nude mice ([1]; 40 days, treatment discontinued on day 30, Ex = dead, in g (unit assumed)): 30.81 and 31.30 and 30.31 and 32.30 and 34.31; weight of nude mice ([1]; 50 days, treatment discontinued on day 30, Ex = dead, in g (unit assumed)): 30.91 and 33.40 and 31.25 and 33.12 and 34.65; weight of nude mice ([1]; 60 days, treatment discontinued on day 30, Ex = dead, in g (unit assumed)): 32.39 and 34.65 and 32.60 and 33.37 and 35.95; increase of AST level compared with the control group ([2]; 1st dose (200 μM) groups): more than the increase related to 4
2 | CC(=O)O[C@@H]1[C@@H]2C(=O)N(Cc3ccccc3)C(=O)[C@@H]2C=C[C@H]1Cl [compound 4] | no abnormalities | 29.17 and 26.62 and 29.35 and 24.80 and 28.90 | 33.10 and 30.76 and 32.46 and 25.32 and 30.89 | 31.71 and 30.85 and 31.40 and 27.13 and 31.24 | 35.20 and 32.46 and 31.25 and 28.34 and 32.30 | became Ex after 15 days; also recorded: found Ex in their cages after the 3rd dose; also recorded: four nude mice were dead; also recorded: showed Ex after the third dose | 24.57 and 22.94 and 24.50 and 23.01 and 24.01 | 141 | 349 | 116 | 83.6 | 2.63 ± 0.07 | 57.5 ± 0.71 | 94.5 ± 3.54 | 0.03 ± 0.03 | weight of nude mice ([1]; 20 days, Ex = dead): 37.08 and Ex; weight of nude mice ([1]; 30 days, Ex = dead): 35.54 and Ex; weight of nude mice ([1]; 40 days, treatment discontinued on day 30, Ex = dead): 34.30 and Ex; weight of nude mice ([1]; 50 days, treatment discontinued on day 30, Ex = dead): 30.41 and Ex; weight of nude mice ([1]; 60 days, treatment discontinued on day 30, Ex = dead): 32.95 and Ex
